This is an account of results in patent EP1957493B1, “8-AZABICYCLO[3.2.1]OCTANE DERIVATIVES USEFUL AS MONOAMINE REUPTAKE INHIBITORS” (N.V. Organon, priority 2005, dated 2007).

What all share (type): cell-based
In assay [1] the target is T1, human serotonin transporter (hSERT) (Homo sapiens, UniProt P31645).
T1 construct: expressed in transfected cells
Briefly: Assay of monoamine uptake: inhibition of serotonin uptake. How it is done:
(§1) The in vitro test for the inhibition of dopamine and serotonin uptake was performed in Chinese Hamster Ovary cells expressing the human dopamine transporter (hDAT) or the human serotonin transporter (hSERT). The in vitro test for the inhibition of noradrenaline uptake was performed in Madin Darby Canine Kidney Cells (MDCK) expressing the human noradrenaline transporter (hNET).
(§2) Briefly, cell lines stably overexpressing the appropriate human transporter were propagated and plated according to standard cell culture techniques. Following plating, cells were left to adhere for either one or two days. A 6-point serial dilution (normally 1 E-5M to 1E-10M) of test and reference compounds was prepared, added to the washed cells and incubated for 5 minutes at ambient temperature for dopamine or serotonin transporter overexpressing and 37°C for noradrenaline overexpressing cells. Next, a final concentration of 20 nM of appropriate neurotransmitter (mixture of [^3H]-neurotransmitter and non-labelled neurtoransmitter) was added and the cells were incubated for three or five minutes at ambient temperature for dopamine or serotonin transporter overexpressing cells or ten minutes at 37°C for noradrenaline overexpressing cells. Following termination of the assay, Microscint-20 was added directly to the cells and the amount of radioactivity taken up by the cells was estimated by scintillation counting.
(§3) pEC50 values indicating inhibition of monoamine uptake were calculated using standard curve fitting techniques.

Assay [2] deals with T2, human noradrenaline transporter (hNET) (Homo sapiens, UniProt P23975).
T2 construct: expressed in transfected cells
Kind of assay: Assay of monoamine uptake: inhibition of noradrenaline uptake. The procedure:
as §1, §2, §3

The target in assay [3] is T3, human dopamine transporter (hDAT) (Homo sapiens, UniProt Q01959).
T3 construct: expressed in transfected cells
Briefly: Assay of monoamine uptake: inhibition of dopamine uptake. The procedure: as §1, §2, §3

[4] abbreviates: inhibition of serotonin uptake, Chinese Hamster Ovary cells expressing hSERT, 20 nM neurotransmitter ([3H]-labelled and non-labelled), ambient temperature, read-out: hSERT.
Where [5] appears, read: inhibition of noradrenaline uptake, Madin Darby Canine Kidney Cells (MDCK) expressing hNET, 20 nM neurotransmitter ([3H]-labelled and non-labelled), 37°C, read-out: hNET.
[6] abbreviates: inhibition of dopamine uptake, Chinese Hamster Ovary cells expressing hDAT, 20 nM neurotransmitter ([3H]-labelled and non-labelled), ambient temperature, read-out: hDAT.

Like-named read-outs stand apart in the source and are kept apart here. Where only a bound is given, the exact number is not on record here.

T3 sequence (Q01959 whole entry): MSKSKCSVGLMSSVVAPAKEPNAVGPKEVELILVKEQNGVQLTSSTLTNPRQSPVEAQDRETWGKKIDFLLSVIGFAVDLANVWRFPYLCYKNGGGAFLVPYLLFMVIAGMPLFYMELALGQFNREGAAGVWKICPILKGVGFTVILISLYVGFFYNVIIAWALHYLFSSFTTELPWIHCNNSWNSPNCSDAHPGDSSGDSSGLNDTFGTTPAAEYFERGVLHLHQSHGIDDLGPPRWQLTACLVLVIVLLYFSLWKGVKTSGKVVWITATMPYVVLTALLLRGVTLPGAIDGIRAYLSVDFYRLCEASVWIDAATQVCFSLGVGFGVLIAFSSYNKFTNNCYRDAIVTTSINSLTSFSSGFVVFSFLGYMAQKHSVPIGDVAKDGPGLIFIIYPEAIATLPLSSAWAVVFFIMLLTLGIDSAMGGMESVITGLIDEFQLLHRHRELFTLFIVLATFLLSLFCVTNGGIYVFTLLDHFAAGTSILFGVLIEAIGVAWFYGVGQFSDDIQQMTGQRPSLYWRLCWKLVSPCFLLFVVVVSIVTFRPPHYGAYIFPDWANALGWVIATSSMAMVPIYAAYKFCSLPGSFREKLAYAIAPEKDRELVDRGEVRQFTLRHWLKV
T2 sequence (P23975 whole entry): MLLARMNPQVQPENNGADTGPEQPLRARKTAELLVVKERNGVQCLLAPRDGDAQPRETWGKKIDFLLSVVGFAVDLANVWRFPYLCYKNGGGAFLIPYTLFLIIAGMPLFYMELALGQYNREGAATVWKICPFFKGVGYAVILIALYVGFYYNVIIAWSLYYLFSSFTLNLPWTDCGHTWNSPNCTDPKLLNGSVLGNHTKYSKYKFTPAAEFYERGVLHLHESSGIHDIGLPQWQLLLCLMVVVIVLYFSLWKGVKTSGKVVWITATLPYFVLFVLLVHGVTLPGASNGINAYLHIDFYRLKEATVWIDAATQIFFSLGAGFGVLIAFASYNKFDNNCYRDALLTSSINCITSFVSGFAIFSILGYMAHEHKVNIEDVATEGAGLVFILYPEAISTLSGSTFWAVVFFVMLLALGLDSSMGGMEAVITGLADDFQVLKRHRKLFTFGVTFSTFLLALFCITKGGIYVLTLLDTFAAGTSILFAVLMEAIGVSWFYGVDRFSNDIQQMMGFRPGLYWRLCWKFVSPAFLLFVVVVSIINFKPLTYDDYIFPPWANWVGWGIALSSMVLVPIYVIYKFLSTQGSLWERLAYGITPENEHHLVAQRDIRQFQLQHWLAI
T1 sequence (P31645 whole entry): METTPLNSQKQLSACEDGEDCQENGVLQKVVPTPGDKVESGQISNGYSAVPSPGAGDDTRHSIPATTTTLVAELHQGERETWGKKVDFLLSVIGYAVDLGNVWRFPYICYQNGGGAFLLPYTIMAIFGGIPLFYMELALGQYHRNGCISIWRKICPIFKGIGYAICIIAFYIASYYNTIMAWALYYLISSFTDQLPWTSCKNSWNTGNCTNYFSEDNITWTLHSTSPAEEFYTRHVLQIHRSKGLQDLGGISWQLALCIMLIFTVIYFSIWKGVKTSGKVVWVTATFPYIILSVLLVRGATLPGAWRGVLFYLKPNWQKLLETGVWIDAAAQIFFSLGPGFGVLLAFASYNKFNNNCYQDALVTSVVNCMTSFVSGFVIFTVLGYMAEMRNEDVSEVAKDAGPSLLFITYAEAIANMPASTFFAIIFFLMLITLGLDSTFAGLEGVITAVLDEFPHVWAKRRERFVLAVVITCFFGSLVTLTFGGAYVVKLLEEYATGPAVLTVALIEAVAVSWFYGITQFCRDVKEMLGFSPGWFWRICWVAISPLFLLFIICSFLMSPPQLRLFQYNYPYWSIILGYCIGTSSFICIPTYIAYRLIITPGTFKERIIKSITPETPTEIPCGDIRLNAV

For the compound `c1ccc(Oc2cccc(OC3CC4CCC(C3)N4)c2)cc1` (stereo not drawn) [Example 111.5, 3-endo-(3-Phenoxyphenoxy)-8-azabicyclo[3.2.1]octane], the EC50 in assay [1] is greater than 1000 nM; in assay [2], 100 to 1000 nM; in assay [3] it was less than 100 nM.

As to `N#Cc1ccc(-c2cc(C#N)cc(OC3CC4CCC(C3)N4)c2)nc1` (stereo not drawn) [Example IX.3, exo 6-(3-(8-Azabicyclo[3.2.1]oct-3-yloxy)-5-cyanophenyl)nicotinonitrile], the EC50 in assay [1] (setting [4]) was less than 100 nM; in assay [2] (setting [5]), greater than 1000 nM; in assay [3] (setting [6]), greater than 1000 nM.

For the compound `FC(F)(F)c1ccccc1-c1cccc(OC2CC3CCC(C2)N3)c1` (stereo not drawn) [IV.8, 3-exo-(2'-Trifluoromethylbiphenyl-3-yloxy)-8-azabicyclo[3.2.1]octane], the EC50 was 100 to 1000 nM in assay [1] (setting [4]), less than 100 nM in assay [2] (setting [5]) and greater than 1000 nM in assay [3] (setting [6]).

Turning to `COc1cc(Oc2ccccc2)cc(OC2CC3CCC(C2)N3)c1F` (stereo not drawn) [IV.9, 3-exo-(2-Fluoro-3-methoxy-5-phenoxyphenoxy)-8-azabicyclo[3.2.1]octane], the EC50 in assay [1] (setting [4]) is greater than 1000 nM; in assay [2] (setting [5]), less than 100 nM; in assay [3] (setting [6]), less than 100 nM.

For the compound `Clc1cc(Oc2ccccc2)cc(O[C@@H]2C[C@H]3CC[C@@H](C2)N3)c1` [IV.19, 3-exo-(3-Chloro-5-phenoxyphenoxy)-8-azabicyclo[3.2.1]octane], the results for the EC50 in assay [1] (setting [4]), in assay [2] (setting [5]) and in assay [3] (setting [6]) were greater than 1000 nM, less than 100 nM and less than 100 nM, respectively.

Turning to `FC(F)(F)c1ccc(OC2CC3CCC(C2)N3)cc1-c1ccccc1` (stereo not drawn) [VI.3, 3-exo-(6-Trifluoromethylbiphenyl-3-yloxy)-8-azabicyclo[3.2.1]octane], the EC50 in assay [1] (setting [4]) is 100 to 1000 nM; in assay [2] (setting [5]), greater than 1000 nM; in assay [3] (setting [6]) it was greater than 1000 nM.

As to `N#Cc1ccc(-c2cc(C#N)cc(OC3CC4CCC(C3)N4)c2)cc1` (stereo not drawn) [VI.8, exo 5-(8-Azabicyclo[3.2.1]oct-3-yloxy)-biphenyl-3,4'-dicarbonitrile], the EC50 is less than 100 nM in assay [1] (setting [4]), greater than 1000 nM in assay [2] (setting [5]) and greater than 1000 nM in assay [3] (setting [6]).
